Common to all, as to assay: DTP human tumour cell line panel, 48 h
Assay [1] relates to HS 578T breast.
Assay [2] has as its system DU-145 prostate.
The subject of assay [3] is SNB-75 CNS.
In assay [4] the test system is HOP-62 NSCLC.
The subject of assay [5] is MALME-3M melanoma.

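Tested at 5 concentrations; 48 h exposure; 96-well plates; endpoints linearly interpolated, else capped at highest concentration. TGI denotes the concentration required for complete inhibition of growth.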

For the compound `CCOC(=O)/C(=N/Nc1ccccc1)N1C(=S)C=C(C)NN(C)C1=S`, the TGI in assay [1] and in assay [2] was over 100 µM each time.
With `C/C(=N\NC(=O)c1ccccc1O)c1cccc(/C(C)=N/NC(=O)c2ccccc2O)n1.O=S(=O)([O-])[O-].[Fe+2]`, the TGI in assay [3], in assay [4] and in assay [5] was over 100 µM each time.

The record behind these values is PubChem BioAssay (NCI).
